Data on 1 compound can be found in publication PMC13252604, “First Generation Proteolysis Targeting Chimeras (PROTACs) for the Treatment of Progeria” (Advanced Science, 2026).

The target of the assay is T1, ternary complex between progerin, compound 2 and CRBN (Mus musculus, UniProt P48678+Q8C7D2, DEL608-657).
T1 construct: endogenous in cells; host or cells: Lmna G609G/G609G mouse fibroblasts
Description: Co-immunoprecipitation of ternary complex (anti-CRBN IP, anti-progerin blot). Type of assay: binding. Particulars: 5 µM, 6 h, Lmna^G609G/G609G fibroblasts. From the text:
(A) Input IP .LM123L T-!=> V,!=>
MW Veh Cpd 2 Cpd 2 Veh !!!!!"#$$#B -45665 T4--8 -4;?,;
Progerin !!!!!E#)*+,- ,V4:-Ise::::: :etpoooomX,?4?V:enst9mmqo,848; !?#$B?CDEFCBG+I-+G.BLG+ […]
!!!!!*+,- 84;66L<-,VI9e::::::esnnsmqmXV4-;VL<-,?:estm9XpoX?4T-?L<-,8 FFFFF0BNNB$ :em9Xn […]
IgG heavy chain Iqep:m:p ne:qmppo:m :esmpqtmpn FFFFFSB#T89:I9em:m […]
50- Iqe9mt:: :eoX9ppnnm :eoqpq9s9p X9YF8=F>.-B2?E+FE??+E?@BBCA
FFFFF0BNNB$ rrrFNBF:eqoqs
Cpd 2 Veh FFFFFSB#T89:rrr […]
Vehicle .LM123L T-!=>(%C" V,!=> […]
50- !!!!!C#' -4TT8VLamin C -4T:T; (%$$-4-:?5T '()*+
!!!!!E#)*+,- ,V4:-β-Actin ,?4?V ,848; D(%
37- !!!!!*+,- 84;66L<-,V V4-;VL<-,? ?4T-?L<-,8 ,-)*+ […]
Abundance Ratio (log2): Ve h / Cpd 2
Supporting Figure S2. Ternary complex formation, progerin engagement and global selectivity of compound 2. (A) Progeroid […]/G609G fibroblasts treated with vehicle (0.1% DMSO) or compound 2 (5 µM) were subjected to immunoprecipitation with an anti-CRBN antibody and then immunoblotted with an anti-progerin antibody. Bar graph represents mean±sem of 2 independent experiments. (B) Representative progerin immunoblotting of the soluble fraction of LmnaG609G/G609G cell homogenates treated with […]
Cells were harvested by trypsin, centrifuged and washed with PBS. […] The mixture was then allowed to incubate for 30min at 37 °C in the dark and samples were finally analysed by FACScalibur (Becton Dickinson) flow cytometer […]

T1 sequence (P48678 with tags, fused parts or gaps DEL608-657 limits assumed): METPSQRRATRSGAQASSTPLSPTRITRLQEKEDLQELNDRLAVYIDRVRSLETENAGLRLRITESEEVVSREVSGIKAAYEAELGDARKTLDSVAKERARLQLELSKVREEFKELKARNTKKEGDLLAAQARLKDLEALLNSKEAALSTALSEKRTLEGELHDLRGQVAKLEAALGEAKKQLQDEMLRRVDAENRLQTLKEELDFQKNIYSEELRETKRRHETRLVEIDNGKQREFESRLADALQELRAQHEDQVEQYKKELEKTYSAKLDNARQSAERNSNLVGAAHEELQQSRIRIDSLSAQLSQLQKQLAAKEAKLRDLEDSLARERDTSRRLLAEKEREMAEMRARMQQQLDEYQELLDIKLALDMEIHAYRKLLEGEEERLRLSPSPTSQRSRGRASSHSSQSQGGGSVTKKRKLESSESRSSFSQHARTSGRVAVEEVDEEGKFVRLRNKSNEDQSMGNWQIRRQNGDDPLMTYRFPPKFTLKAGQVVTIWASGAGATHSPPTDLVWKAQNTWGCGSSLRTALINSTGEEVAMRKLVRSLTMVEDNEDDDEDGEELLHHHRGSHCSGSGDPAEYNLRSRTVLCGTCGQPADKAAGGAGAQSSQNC
T1 sequence (Q8C7D2 whole entry, stated change not applied): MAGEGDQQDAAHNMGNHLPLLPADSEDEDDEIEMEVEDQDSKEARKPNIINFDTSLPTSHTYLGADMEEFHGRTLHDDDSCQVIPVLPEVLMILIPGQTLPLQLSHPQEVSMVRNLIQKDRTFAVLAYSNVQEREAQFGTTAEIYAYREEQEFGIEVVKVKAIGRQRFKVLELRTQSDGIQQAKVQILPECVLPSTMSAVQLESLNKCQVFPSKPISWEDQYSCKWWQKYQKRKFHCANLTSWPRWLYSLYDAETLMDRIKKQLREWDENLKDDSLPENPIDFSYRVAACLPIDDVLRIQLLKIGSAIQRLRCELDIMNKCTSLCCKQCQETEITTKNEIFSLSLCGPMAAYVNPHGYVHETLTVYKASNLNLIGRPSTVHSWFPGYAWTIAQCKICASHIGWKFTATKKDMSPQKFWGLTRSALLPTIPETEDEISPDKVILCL
T1 sequence (Q3U1J4 whole entry partner): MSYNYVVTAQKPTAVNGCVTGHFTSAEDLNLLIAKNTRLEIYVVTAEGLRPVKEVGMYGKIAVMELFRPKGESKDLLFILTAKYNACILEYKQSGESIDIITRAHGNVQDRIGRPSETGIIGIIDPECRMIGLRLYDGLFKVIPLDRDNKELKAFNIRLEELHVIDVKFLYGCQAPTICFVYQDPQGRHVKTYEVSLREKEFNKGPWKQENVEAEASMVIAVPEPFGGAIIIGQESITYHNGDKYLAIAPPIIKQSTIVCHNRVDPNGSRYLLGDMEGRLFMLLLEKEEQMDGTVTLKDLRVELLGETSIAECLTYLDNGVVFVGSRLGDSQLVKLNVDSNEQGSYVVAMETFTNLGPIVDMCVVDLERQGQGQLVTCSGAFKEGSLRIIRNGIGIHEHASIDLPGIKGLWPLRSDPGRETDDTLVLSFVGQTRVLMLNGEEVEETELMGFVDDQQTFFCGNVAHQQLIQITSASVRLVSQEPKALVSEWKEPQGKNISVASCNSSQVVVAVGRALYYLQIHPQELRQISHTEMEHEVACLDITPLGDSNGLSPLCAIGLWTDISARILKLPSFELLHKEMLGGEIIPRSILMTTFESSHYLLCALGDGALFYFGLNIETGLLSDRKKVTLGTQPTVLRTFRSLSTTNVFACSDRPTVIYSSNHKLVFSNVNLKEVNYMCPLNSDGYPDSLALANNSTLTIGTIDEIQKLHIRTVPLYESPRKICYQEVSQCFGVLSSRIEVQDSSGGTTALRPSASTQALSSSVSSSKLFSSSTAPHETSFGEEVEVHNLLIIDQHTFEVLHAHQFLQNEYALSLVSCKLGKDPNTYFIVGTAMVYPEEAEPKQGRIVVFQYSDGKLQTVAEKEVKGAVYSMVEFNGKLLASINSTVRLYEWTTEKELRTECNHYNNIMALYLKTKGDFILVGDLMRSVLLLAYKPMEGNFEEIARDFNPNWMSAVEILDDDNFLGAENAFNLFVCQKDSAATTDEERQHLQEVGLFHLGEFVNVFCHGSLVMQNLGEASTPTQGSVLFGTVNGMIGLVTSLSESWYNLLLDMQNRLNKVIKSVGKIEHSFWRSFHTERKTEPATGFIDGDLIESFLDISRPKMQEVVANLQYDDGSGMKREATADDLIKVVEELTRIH

As to `CC1(C)Oc2cc3oc(=O)ccc3cc2C[C@@H]1OC(=O)CCCCCNc1cccc2c1C(=O)N(C1CCC(=O)NC1=O)C2=O` (stereo partly shown) [compound 2], the “formation of ternary complex with progerin and CRBN by immunoprecipitation” value is “confirmed the formation of the ternary complex”.
